Reference: US9284362B2, “α/β-peptide mimics of Z-domain peptides” (Wisconsin Alumni Research Foundation, priority 2014, dated 2016)
“Also recorded” adds a separate entry of the source. *1 amine or outer side, *2 acyl side, *3 side chain or, on linkers, in order; H or OH if unused. Where a SMILES comes first, the peptide text is derived from it. Where no end group is shown, it is not given here. [ ]: non-standard residue; d: D form. The star is where a group is joined. ξ: configuration not given here. ξ(4-Aminopyrrolidine-3-CO) = O=C(C1CNCC1N[*:1])[*:2]; NH(1S,2S-2-CONH2-cPent) = NC(=O)[C@H]1CCC[C@@H]1N*; ACPC(1S,2S) = N[C@H]1CCC[C@@H]1C(=O)*; X1 = O=C([C@H]1CCC[C@@H]1N[*:1])[*:2]; X2 = O=C([C@H]1CNC[C@@H]1N[*:1])[*:2]; Aib = CC(C)(N)C(=O)O

Experiments:
VEGF = molecular target: T1, VEGF (Homo sapiens, UniProt P15692); assay: VEGF competition fluorescence polarization (FP) assay; assay type: binding; details: for binding to VEGF (in words): competition FP assay
T1 construct: made in house
T1 sequence (P15692 27-191 isoform P15692-4): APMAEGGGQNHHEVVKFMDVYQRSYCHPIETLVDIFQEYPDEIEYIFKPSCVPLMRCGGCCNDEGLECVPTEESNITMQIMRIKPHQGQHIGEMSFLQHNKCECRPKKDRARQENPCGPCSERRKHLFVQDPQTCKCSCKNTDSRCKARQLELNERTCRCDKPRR
Method: Inhibitors of the VEGF/VEGFR interaction were evaluated using VEGF direct binding and competition fluorescence polarization (FP) assays, as previously described (Peterson, K. J. et al., Anal. Biochem. 2008, 378, 8-14), but using a modified tracer. […] DMSO stock solutions of α- and α/β-peptide inhibitors were prepared and concentration determined by UV absorbance at 280 nm. Extinction coefficients for α- and α/β-peptides were calculated based on the number of tryptophans (ε280=5690 M^−1 cm^−1), tyrosines (ε280=1280 M^−1 cm^−1), and cystines (ε280=120 M^−1 cm^−1) in each primary sequence (Gill, S. C, et al. Anal. Biochem. 1989, 182, 319-326). […] Each condition was run in duplicate in each assay. Inhibition constants (Ki) were determined from FP data using methods described for a competitive binding model with GraphPad Prism 4.0 (Peterson, K. J. et al., Anal. Biochem. 2008, 378, 8-14). Reported Ki values are representative values from multiple replicate assays.
FP assays were only run once to test binding affinity.

[1] = system: VEGF-induced proliferation of human umbilical vein endothelial cells (HUVECs); assay: HUVEC proliferation assay (VEGF165-induced, Click-iT EdU); assay type: cell-based; details: 50 μM peptide, 10 ng/mL VEGF165
Method: Human umbilical vein endothelial cells (HUVECs) (Lonza, Basel, Switzerland, catalog no. CC2519) were cultured using Medium 199 (M199) (Mediatech, Herndon, Va., USA; 50-050-PB) supplemented with penicillin/steptomycin (HyClone-brand, Thermo Fisher Scientific, Herndon, Va., USA; SV30010) and EGM-2 (Lonza, CC4176) at 37° C. in 5% CO2. Cells were grown to 60-80% confluence and then serum-starved in M199 with 2% cosmic calf serum (CCS) (HyClone-brand, SH30087) overnight. […] Filter sterilized stock solutions of α- or α/β-peptide in PBS were made at a concentration of 200 μM, as determined by UV absorbance. Appropriate dilutions of α- or α/β-peptide were made with PBS, and the resulting solutions were premixed with recombinant human VEGF165 (R&D Systems, 293-VE-010) or recombinant human FGF basic (FGF-2) (R&D Systems, a wholly owned subsidiary of TECHNE Corporation, Minneapolis, Minn., USA; 233-FB-025) in M199/2% CCS and incubated at room temperature for 1 hour. […] Relative cell proliferation was quantified using the “Click-iT”-brand EdU Alexa Flour 488 Assay (Life Technologies, C10337). […] EdU incorporation was detected using Life Technologies' assay protocol. […] Images were analyzed using NIS-Elements AR Imaging Software (Nikon Instruments, Inc., Melville, N.Y., USA) to count the number of proliferating cells (EdU stained) and total number of cells (Hoechst stained). […]

HER2 [2] = molecular target: T2, HER2 (Homo sapiens, UniProt P04626); details: cited from earlier work
[3] = molecular target: T3, TNFα (binding to immobilized TNFR1) (Homo sapiens, UniProt P01375); assay: TNFα/TNFR competition ELISA; details: Table 14; read-out: TNFa-TNFR ELISA IC50
T3 construct: purchased R&D Systems 210-TA-020 (TNFα); 636-R1-025 (sTNF RI)
Method: The binding of α/β-peptides to TNFα to inhibit binding to TNFR was determined by competition ELISA. […] After immobilization, the plate was washed with PBS/0.05% TWEEN, blocked with 1% BSA in PBS for 2 hours, and then washed with PBS/0.05% TWEEN. Serial dilutions of soluble α/β-peptides in DMSO were prepared (final concentrations=0.04 nM-10 μM), and 10 μL of each of these solutions added to 240 μL of recombinant human TNFα (R&D Systems, 210-TA-020, final concentration=0.080 μg/mL) in PBS/0.05% TWEEN. The α/β-peptides were allowed to pre-incubate with TNFα for 3 hours and then 50 μL of each α/β-peptide/TNFα mixture was added to wells on the ELISA plate and incubated at room temperature for 1 hour. The plate was then washed with PBS/0.05% TWEEN and the presence of TNFα detected by adding 100 μL of a 1:500 dilution of Human TNFα Biotinylated Affinity Purified PAb (R&D Systems, BAF210) and incubating at room temperature for 1 hour. […] Plates were read during the time course of the reaction on a BioTek Synergy 2 microplate reader, reading A405. […] To compare the ability of each soluble α/β-peptide to inhibit the binding of TNFα to immobilized TNFR, IC50 values were calculated by fitting the ELISA absorbance data to a sigmoidal dose-response equation.

HER2 [4] = molecular target: T2, HER2; assay: Z-HER2 mimics binding, ELISA 3; details: read-out: ELISA 3 Ki calcd.
[5] = Half-life of Z-HER2 mimics (Table 16); assay type: in vitro ADME; details: conditions not given; read-out: half-life t1/2

T3 sequence (P01375 77-233 limits assumed): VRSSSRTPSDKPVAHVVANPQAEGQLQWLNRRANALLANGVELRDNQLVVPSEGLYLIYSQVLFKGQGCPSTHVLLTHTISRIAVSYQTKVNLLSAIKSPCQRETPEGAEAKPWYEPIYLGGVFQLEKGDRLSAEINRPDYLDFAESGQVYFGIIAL

In the case of “VDNKFNKEQHNARAIEAALDPNLNDQQFHAKIWSIIDD-NH2 [α-VEGF-1]”, the “binding to VEGF (in words)” value (VEGF) is reported as “does not show binding; also recorded: did not recover binding”, the “solubility in PBS at 75 μM” value (Aqueous solubility (PBS)) is reported as “fully soluble” and the “inhibition of VEGF-induced HUVEC proliferation (in words)” value [1] is reported as “does not show any inhibition”.

In the case of “82 (VENKFNKEMRNAYWEIALLPNLNNQQKRAFIRSLYDDPG; listed as Homo sapiens) [compound 82]”, the “reported Kd” value (HER2 [2]) is listed as “no blinding”.

In the case of “VDNKFNKEXHNZRAIEAALDPNLNDQQFHAKIWZIIXD [α/β-VEGF-1-linear]”, the “binding to VEGF (in words)” value (VEGF) is reported as “lack of binding; also recorded: essentially no binding”.

In the case of `CC[C@H](C)[C@H](NC(=O)[C@H](CCCNC(=N)N)NC(=O)[C@H](Cc1c[nH]c2ccccc12)NC(=O)CNC(=O)[C@@H](N)CC(C)C)C(=O)NCC(=O)N[C@@H](CCC(=O)O)C(=O)NC(C)(C)C(=O)NCC(=O)N[C@H](C(=O)N[C@@H](CC(=O)O)C(=O)N1CCC[C@H]1C(=O)N[C@@H](CC(N)=O)C(=O)N[C@@H](CC(C)C)C(=O)N[C@@H](CC(N)=O)C(=O)N[C@@H](Cc1c[nH]cn1)C(=O)N[C@@H](CCC(N)=O)C(=O)N[C@@H](CCC(N)=O)C(=O)N[C@@H](Cc1ccccc1)C(=O)N[C@@H](CCCNC(=N)N)C(=O)NC(C)(C)C(=O)N[C@@H](CCCCN)C(=O)N[C@H](C(=O)N[C@@H](CC(C)C)C(=O)N[C@H]1CNC[C@@H]1C(=O)N[C@H](C(=O)N[C@@H](Cc1c[nH]c2ccccc12)C(=O)N[C@H]1CCC[C@@H]1C(N)=O)[C@@H](C)CC)[C@@H](C)CC)[C@@H](C)O` [α/β-TNFα-14, LGWRIGEAGTDPNLNHQQFRAKILZIWX-NH2] (H-LGWRIGE[Aib]GTDPNLNHQQFR[Aib]KIL[X2]IW-{NH(1S,2S-2-CONH2-cPent)}; N-terminus assumed), the IC50 [3] is reported as 1000 nM.

For `CC[C@H](C)[C@H](NC(=O)[C@H](CCCNC(=N)N)NC(=O)[C@H](Cc1c[nH]c2ccccc12)NC(=O)CNC(=O)[C@H](CC(C)C)NC(=O)[C@H]1CCC[C@@H]1N)C(=O)NCC(=O)N[C@@H](CCC(=O)O)C(=O)NC(C)(C)C(=O)NCC(=O)N[C@H](C(=O)N[C@@H](CC(=O)O)C(=O)N1CCC[C@H]1C(=O)N[C@@H](CC(N)=O)C(=O)N[C@@H](CC(C)C)C(=O)N[C@@H](CC(N)=O)C(=O)N[C@@H](Cc1c[nH]cn1)C(=O)N[C@@H](CCC(N)=O)C(=O)N[C@@H](CCC(N)=O)C(=O)N[C@@H](Cc1ccccc1)C(=O)N[C@@H](CCCNC(=N)N)C(=O)NC(C)(C)C(=O)N[C@@H](CCCCN)C(=O)N[C@H](C(=O)N[C@@H](CC(C)C)C(=O)N[C@H]1CNC[C@@H]1C(=O)N[C@H](C(=O)N[C@@H](Cc1c[nH]c2ccccc12)C(=O)N[C@H]1CCC[C@@H]1C(N)=O)[C@@H](C)CC)[C@@H](C)CC)[C@@H](C)O` [α/β-TNFα-16, XLGWRIGEAGTDPNLNHQQFRAKILZIWX-NH2] ({ACPC(1S,2S)}-LGWRIGE[Aib]GTDPNLNHQQFR[Aib]KIL[X2]IW-{NH(1S,2S-2-CONH2-cPent)}; N-terminus assumed), the IC50 [3] was 510 nM.

In the case of “KEMHNAYAIEIALLPNLNDQQFHAFIWSLIDDPS-NH2 [Z-VEGF (7-40)]”, the “binding to VEGF (in words)” value (VEGF) is reported as “showed no binding”.

Compound `CC[C@H](C)[C@H](NC(=O)C1CNCC1NC(=O)[C@H](CCCNC(=N)N)NC(=O)[C@@H](NC(=O)[C@H](CCCCN)NC(=O)C(C)(C)NC(=O)[C@H](CCCNC(=N)N)NC(=O)[C@H](CCCCN)NC(=O)[C@H](CCC(N)=O)NC(=O)C(C)(C)NC(=O)[C@H](CC(N)=O)NC(=O)[C@H](CC(N)=O)NC(=O)[C@H](CC(C)C)NC(=O)[C@H](CC(N)=O)NC(=O)[C@@H]1CCCN1C(=O)[C@H](CC(=O)O)NC(=O)[C@H](CC(C)C)NC(=O)[C@H](C)NC(=O)C(C)(C)NC(=O)[C@H](CCC(=O)O)NC(=O)[C@H](Cc1c[nH]c2ccccc12)NC(=O)[C@H](Cc1ccc(O)cc1)NC(=O)[C@H](CCCNC(=N)N)NC(=O)C1CNCC1NC(=O)[C@H](CCCNC(=N)N)NC(=O)[C@H](CCSC)NC(=O)[C@H]1CCC[C@@H]1NC(=O)[C@H](CCCCN)NC(=O)[C@H](CC(N)=O)NC(=O)[C@@H](N)Cc1ccccc1)[C@@H](C)CC)C(=O)N[C@@H](Cc1ccc(O)cc1)C(=O)N[C@@H](CC(=O)O)C(=O)N[C@@H](CC(=O)O)C(=O)N1CCC[C@H]1C(=O)N[C@@H](CO)C(N)=O` (stereo partly shown) [compound 97] (H-FNK[X1]MR[ξ(4-Aminopyrrolidine-3-CO)]RYWE[Aib]ALDPNLNN[Aib]QKR[Aib]KIR[ξ(4-Aminopyrrolidine-3-CO)]IYDDPS-NH2) has a Ki (HER2 [4]) of 33 nM and a half-life [5] of 4.33 h.

`CC[C@H](C)[C@H](NC(=O)[C@H](C)NC(=O)[C@H]1CCC[C@@H]1NC(=O)[C@H](C)NC(=O)[C@H](CC(N)=O)NC(=O)[C@H](Cc1c[nH]cn1)NC(=O)[C@H]1CCC[C@@H]1NC(=O)[C@H](CCC(=O)O)NC(=O)[C@@H](N)CCCCN)C(=O)N[C@@H](CCC(=O)O)C(=O)N[C@H](C(=O)N[C@@H](C)C(=O)N[C@@H](CC(C)C)C(=O)N[C@@H](CC(C)C)C(=O)N1CCC[C@H]1C(=O)N[C@@H](CC(N)=O)C(=O)N[C@@H](CC(C)C)C(=O)N[C@@H](CC(N)=O)C(=O)N[C@@H](CC(=O)O)C(=O)N[C@@H](CCC(N)=O)C(=O)N[C@@H](CCC(N)=O)C(=O)N[C@@H](Cc1ccccc1)C(=O)N[C@@H](Cc1c[nH]cn1)C(=O)N[C@@H](C)C(=O)N[C@H]1CCC[C@@H]1C(=O)N[C@H](C(=O)N[C@@H](Cc1c[nH]c2ccccc12)C(=O)N[C@H]1CCC[C@@H]1C(=O)N[C@@H](CC(C)C)C(=O)N[C@H](C(=O)N[C@@H](CC(=O)O)C(=O)N[C@@H](CC(=O)O)C(=O)N1CCC[C@H]1C(=O)N[C@@H](CO)C(N)=O)[C@@H](C)CC)[C@@H](C)CC)[C@@H](C)CC` [E4, KEXHNAXAIEIALLPNLNDQQFHAXIWXLIDDPS] (H-KE[X1]HNA[X1]AIEIALLPNLNDQQFHA[X1]IW[X1]LIDDPS-NH2) showed a Ki (VEGF; Table 5, early mimics, FP assay run once) of over 50000 nM.

In the case of “VDNKFNKEMHNAYAIEIALLPNLNDQQFHAFIWSLIDD-NH2 [Z-VEGF (1-38)]”, the “binding to VEGF (in words)” value (VEGF) is reported as “shows no binding” and the “binding to VEGF (in words)” value (VEGF; listed as Z-VEGF(1-38)) is reported as “complete loss of binding”.
